Data on three compounds can be found in ChEMBL document CHEMBL1629646, “Continuous cefazolin infusion to treat bone and joint infections: clinical efficacy, feasibility, safety, and serum and bone concentrations” (Antimicrob Agents Chemother, 2009).

Converted amounts (≈) assume the structure as drawn.

What is called MIC90 is the lowest concentration that inhibits either 90% of growth or 90% of the strains tested, depending on the study. Low readings indicate greater potency, high ones weaker potency. The Kp is the ratio of the level in a tissue or fluid to that in plasma or blood. The MIC is the lowest concentration that inhibits growth of the organism.

The nature of data set [1]: Drug level in patient serum with bone and joint infection at 60 to 80 mg/kg/day, iv administered as continuous infusion for 42 days measured from day 11 to 21 by agar disk diffusion assay. The arrangement: route intravenous. Type of data set: ADME, organism-based. Particulars: human, read-out: Drug uptake. A general note: In agar diffusion tests the substance spreads into inoculated agar from a disc or well.

Data set [2] concerns Staphylococcus. Briefly: Antimicrobial activity against methicillin-susceptible Staphylococcus. Type of data set: functional.
Data set [3] deals with Staphylococcus. Briefly: Ratio of drug level in patient serum with bone and joint infection to MIC90 for drug-susceptible Staphylococci.
Data set [4] concerns Streptococcus. Briefly: Antimicrobial activity against Streptococcus. The class given is functional.
Data set [5] in a line: Drug level in patient serum with bone and joint infection at 60 to 80 mg/kg/day, iv administered as continuous infusion for 42 days measured from day 2 to 10 by agar disk diffusion assay. The class given is ADME, organism-based. The arrangement: route intravenous. The following applies: human, read-out: Drug uptake.
The subject of data set [6] is Nucleic Acid. Briefly: Ratio of drug level in patient bone with bone and joint infection to MIC90 for drug-susceptible Staphylococci. Type of data set: functional.
The nature of data set [7]: Ratio of drug level in bone to serum in patient with bone and joint infection at 60 to 80 mg/kg/day, iv administered as continuous infusion for 42 days. The class given is ADME, organism-based. Also noted: route intravenous. Particulars: human.
Data set [8] is described as follows: Drug level in patient bone with bone and joint infection measured per gram of tissue at 60 to 80 mg/kg/day, iv administered as continuous infusion for 42 days measured on day 7 by agar disk diffusion assay. Type of data set: ADME, organism-based, Bone element. The arrangement: route intravenous. Particulars: human, in vivo, 1008 h.
Data set [9] deals with Bacillus pumilus. Briefly: Antimicrobial activity against Bacillus pumilus SJ1554. Type of data set: functional.

Turning to `Cc1nnc(SCC2=C(C(=O)O)N3C(=O)[C@@H](NC(=O)Cn4cnnn4)[C@H]3SC2)s1` [CEFAZOLIN], the concentration at 1008 h was 57 µg/mL in data set [1] and 63 µg/mL in data set [5]. For the same compound, the MIC90 in data set [2] worked out at 1 µg/mL (≈ 2.2 µM); in data set [4], 0.1 µg/mL (≈ 0.22 µM). For the same compound, the figures for the Ratio in data set [3] and in data set [6] were 60.8 and 5, respectively. Further, in [7], the Kp at 1008 h stood at 0.25. The compound further came in with a bone concentration in data set [8] of 13.5 µg/g.
In data set [9], `C[C@@H]1O[C@@H]1P(=O)(O)O` [FOSFOMYCIN] yielded an MIC of more than 512 µg/mL.
The same measure, in the same setting: as for `CO[C@H]1/C=C/O[C@@]2(C)Oc3c(C)c(O)c4c(O)c(c(/C=N/N5CCN(C)CC5)c(O)c4c3C2=O)NC(=O)/C(C)=C\C=C\[C@H](C)[C@H](O)[C@@H](C)[C@@H](O)[C@@H](C)[C@H](OC(C)=O)[C@@H]1C` [RIFAMPIN], the figure is more than 128 µg/mL.
